Source: ChEMBL document CHEMBL1201862, “PubChem BioAssay data set” (2004)
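Cultured in 96-well plates, cells were exposed to test compound for 48 hours across five concentrations. GI50 = concentration required for 50% inhibition of growth.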 Activity calls are given as the source filed them. Rule as the data show it: active = GI50 up to about 1.1 µM and inactive = higher.

Experiments:
Assay in all cases: NCI tumour cell line growth inhibition, 48 h
EKVX = system: EKVX
MDA-N = system: MDA-N
CCRF-CEM = system: CCRF-CEM
SNB-19 = system: SNB-19
CAKI-1 = system: CAKI-1
MDA-MB-231 = system: MDA-MB-231
LOX IMVI = system: LOX IMVI
UACC-62 = system: UACC-62
NCI/ADR-RES = system: NCI/ADR-RES
A549 = system: A549
IGROV-1 = system: IGROV-1
MCF7 = system: MCF7
UO-31 = system: UO-31
SK-MEL-28 = system: SK-MEL-28
MOLT-4 = system: MOLT-4
HCC 2998 = system: HCC 2998
SN12C = system: SN12C
786-0 = system: 786-0
NCI-H460 = system: NCI-H460
SK-MEL-5 = system: SK-MEL-5

Row | Compound | GI50 (EKVX) | GI50 (MDA-N) | GI50 (CCRF-CEM) | GI50 (SNB-19) | GI50 (CAKI-1) | GI50 (MDA-MB-231) | GI50 (LOX IMVI) | GI50 (UACC-62) | GI50 (NCI/ADR-RES) | GI50 (A549) | GI50 (IGROV-1) | GI50 (MCF7) | GI50 (UO-31) | GI50 (SK-MEL-28) | GI50 (MOLT-4) | GI50 (HCC 2998) | GI50 (SN12C) | GI50 (786-0) | GI50 (NCI-H460) | GI50 (SK-MEL-5)
1 | COc1cc2c(c(OC)c1OC)-c1ccc(SC)c(=O)cc1[C@@H](O)CC2 | 0.000748 µM (active) | 0.000121 µM (active) | 0.00031 µM (active) | 0.00104 µM (active) | 0.00166 µM (active) | 0.00115 µM (active) | 0.00078 µM (active) | 0.000469 µM (active) | 0.00253 µM (active) | 0.000895 µM (active) | 0.00067 µM (active) | 0.000386 µM (active) | 0.0208 µM (active) | 0.0222 µM (active) | 0.00108 µM (active) | 0.00122 µM (active) | 0.00265 µM (active) | 0.000834 µM (active) | 0.000586 µM (active) | 
2 | CCOC(=O)c1csc(NC(=O)CCN2CCOCC2)n1 | 77.3 µM (inactive) | 59.7 µM (inactive) | 29.6 µM (inactive) | > 100 µM (inactive) | 32 µM (inactive) | > 100 µM (inactive) | 93.8 µM (inactive) | > 100 µM (inactive) | 48.5 µM (inactive) | > 100 µM (inactive) | 41 µM (inactive) | 43.8 µM (inactive) | 78.5 µM (inactive) | > 100 µM (inactive) | 25.9 µM (inactive) | > 100 µM (inactive) |  |  | > 100 µM (inactive) | 67.1 µM (inactive)
3 | COC1CC(OC2C(C)OC(OC3C(C)OC(OC4C(C)OC(O[C@H]5CC[C@@]6(C)C(=CC[C@]7(O)[C@@H]6C[C@@H](OC(=O)/C=C/c6ccccc6)[C@@]6(C)[C@]7(O)CC[C@@]6(O)C(C)=O)C5)CC4OC)CC3OC)CC2OC)OC(C)C1O (stereo not given in full) | > 12.5 µM (inactive) | > 12.5 µM (inactive) | > 12.5 µM (inactive) | > 12.5 µM (inactive) | > 12.5 µM (inactive) | > 12.5 µM (inactive) | > 12.5 µM (inactive) | > 12.5 µM (inactive) | > 12.5 µM (inactive) | > 12.5 µM (inactive) | > 12.5 µM (inactive) | > 12.5 µM (inactive) | 3.11 µM (inactive) | > 12.5 µM (inactive) | > 12.5 µM (inactive) | > 12.5 µM (inactive) | > 12.5 µM (inactive) | > 12.5 µM (inactive) |  | 11.4 µM (inactive)
4 | C[Si](C)(C)CNC(=O)OCc1ccccc1 | 76.7 µM (inactive) | > 100 µM (inactive) | > 100 µM (inactive) | > 100 µM (inactive) | > 100 µM (inactive) | > 100 µM (inactive) | > 100 µM (inactive) | > 100 µM (inactive) | 75 µM (inactive) | > 100 µM (inactive) | > 100 µM (inactive) | > 100 µM (inactive) | > 100 µM (inactive) | > 100 µM (inactive) |  | > 100 µM (inactive) | > 100 µM (inactive) | > 100 µM (inactive) | > 100 µM (inactive) | 57.7 µM (inactive)
5 | CCOC(=O)CC/C(C)=N\n1c(Cc2ccc(Cl)cc2)n[nH]c1=O |  | > 100 µM (inactive) |  | > 100 µM (inactive) | > 100 µM (inactive) | > 100 µM (inactive) | > 100 µM (inactive) | > 100 µM (inactive) | > 100 µM (inactive) | > 100 µM (inactive) | > 100 µM (inactive) | > 100 µM (inactive) | > 100 µM (inactive) | > 100 µM (inactive) | > 100 µM (inactive) | > 100 µM (inactive) | > 100 µM (inactive) | > 100 µM (inactive) | 86.1 µM (inactive) | > 100 µM (inactive)
6 | CSc1c(C#N)c(O)n(-c2ccc(Cl)cc2)c(=O)c1C(C)=O | > 100 µM (inactive) | 55.5 µM (inactive) | 17 µM (inactive) | 88.5 µM (inactive) | 18.7 µM (inactive) | 88.3 µM (inactive) | 34.4 µM (inactive) | 69.3 µM (inactive) | 38.4 µM (inactive) | 50.2 µM (inactive) |  | 52.4 µM (inactive) | 24.9 µM (inactive) | > 100 µM (inactive) | 23 µM (inactive) | > 100 µM (inactive) | > 100 µM (inactive) | 37.7 µM (inactive) | > 100 µM (inactive) | 89.1 µM (inactive)
7 | O[C@@H]1C[C@H]2N3CC[C@@]2(c2cc4c(cc2C3)OCO4)[C@H]2O[C@@H]12 | > 100 µM (inactive) | > 100 µM (inactive) | > 100 µM (inactive) | > 100 µM (inactive) | > 100 µM (inactive) | > 100 µM (inactive) | > 100 µM (inactive) | > 100 µM (inactive) | > 100 µM (inactive) | > 100 µM (inactive) | > 100 µM (inactive) | > 100 µM (inactive) | > 100 µM (inactive) | > 100 µM (inactive) | > 100 µM (inactive) | > 100 µM (inactive) | > 100 µM (inactive) | > 100 µM (inactive) | > 100 µM (inactive) | < 0.01 µM (active)
8 | N#Cc1cc2cc3c4c(c2oc1=O)CCCN4CCC3 | 5.02 µM (inactive) | > 100 µM (inactive) | > 100 µM (inactive) | > 100 µM (inactive) | > 100 µM (inactive) | > 100 µM (inactive) | > 100 µM (inactive) | > 100 µM (inactive) | > 100 µM (inactive) | > 100 µM (inactive) | > 100 µM (inactive) | > 100 µM (inactive) | > 100 µM (inactive) | > 100 µM (inactive) | > 100 µM (inactive) | > 100 µM (inactive) | > 100 µM (inactive) | > 100 µM (inactive) | > 100 µM (inactive) | > 100 µM (inactive)
9 | c1ccc(N2N=C3N(c4ccccc4)C2N3c2ccccc2)cc1 | > 100 µM (inactive) | 19.4 µM (inactive) | 20.7 µM (inactive) | 87.1 µM (inactive) | 88.7 µM (inactive) | 57.3 µM (inactive) | 21.1 µM (inactive) | 25.6 µM (inactive) | > 100 µM (inactive) | 47.3 µM (inactive) | 31.4 µM (inactive) | 31.9 µM (inactive) | 58.9 µM (inactive) | 19.1 µM (inactive) | 16.5 µM (inactive) | 27.6 µM (inactive) | 48 µM (inactive) |  | 31.1 µM (inactive) | 21.6 µM (inactive)
10 | CCCCCCCCCCCCCCCCOP(=O)(O)OCC(NC(C)=O)C(=O)O (stereo not given) | > 100 µM (inactive) | 54.2 µM (inactive) |  | 18.7 µM (inactive) | 57 µM (inactive) | 22.9 µM (inactive) | > 100 µM (inactive) |  | > 100 µM (inactive) | > 100 µM (inactive) | 24.3 µM (inactive) | > 100 µM (inactive) | > 100 µM (inactive) | > 100 µM (inactive) | 24.2 µM (inactive) | > 100 µM (inactive) | 42.6 µM (inactive) | 73.3 µM (inactive) | 39.1 µM (inactive) | > 100 µM (inactive)
11 | C/C=C/C(O)P1(=O)N(Cc2ccccc2)[C@@H]2CCCC[C@H]2N1Cc1ccccc1 (stereo not given in full) | > 25 µM (inactive) | > 25 µM (inactive) | > 25 µM (inactive) | > 25 µM (inactive) | > 25 µM (inactive) | > 25 µM (inactive) | > 25 µM (inactive) | > 25 µM (inactive) | > 25 µM (inactive) | > 25 µM (inactive) | > 25 µM (inactive) | > 25 µM (inactive) | > 25 µM (inactive) | > 25 µM (inactive) | 19.9 µM (inactive) | > 25 µM (inactive) | > 25 µM (inactive) | > 25 µM (inactive) | > 25 µM (inactive) | > 25 µM (inactive)
12 | Fc1ccc2nc3n(c2c1)C(c1c(F)cccc1F)SC3 (stereo not given) |  | 26.7 µM (inactive) |  | > 100 µM (inactive) | 35.2 µM (inactive) | 72.6 µM (inactive) | 50.7 µM (inactive) | 82.4 µM (inactive) | 31.6 µM (inactive) | 58.3 µM (inactive) | > 100 µM (inactive) | 39.9 µM (inactive) | 30.9 µM (inactive) | > 100 µM (inactive) | 21.3 µM (inactive) | > 100 µM (inactive) | 77.4 µM (inactive) | > 100 µM (inactive) | 44 µM (inactive) | 26.7 µM (inactive)
13 | CC(=O)O[C@H]1CCn2c3c(c(C)c21)C(=O)C(N1CC1)=C(C)C3=O | > 10 µM (inactive) | > 10 µM (inactive) | > 10 µM (inactive) | > 10 µM (inactive) | > 10 µM (inactive) | > 10 µM (inactive) | > 10 µM (inactive) | 9.04 µM (inactive) | > 10 µM (inactive) | 3.19 µM (inactive) | > 10 µM (inactive) | 5.51 µM (inactive) |  |  | > 10 µM (inactive) | > 10 µM (inactive) | 7.43 µM (inactive) | > 10 µM (inactive) | 3.52 µM (inactive) | 2.57 µM (inactive)
14 | Clc1cccc(Cl)c1C1ON=C(c2ccccc2)N1C12CC3CC(CC(C3)C1)C2 (stereo not given) | 37.4 µM (inactive) | 37.6 µM (inactive) | 10.4 µM (inactive) | 67.5 µM (inactive) | 40.9 µM (inactive) | 10.1 µM (inactive) | 7.26 µM (inactive) | 24 µM (inactive) | 15.2 µM (inactive) | 25.2 µM (inactive) | 29.1 µM (inactive) | 0.121 µM (active) | 58.5 µM (inactive) | 45 µM (inactive) | 7.31 µM (inactive) | 13.8 µM (inactive) | 41.6 µM (inactive) | 32.4 µM (inactive) | 13.7 µM (inactive) | 4.57 µM (inactive)
